Experiment [1] addresses Sphingosine 1-phosphate receptor 3 (Homo sapiens, UniProt Q99500). The experiment in a line: Agonist activity at recombinant human S1PR3 expressed in CHO cell membranes assessed as [35S]GTP-gammaS binding measured after 1.5 hrs by TopCount scintillation counting method. Background: Binding of GTPγS marks nucleotide exchange on a G protein.
The target of experiment [2] is T1, Sphingosine 1-phosphate receptor 5 (Homo sapiens, UniProt Q9H228). Description: Agonist activity at recombinant human S1PR5 expressed in CHO cell membranes assessed as [35S]GTP-gammaS binding measured after 1.5 hrs by TopCount scintillation counting method.
Experiment [3] addresses T1, Sphingosine 1-phosphate receptor 5. Description: Agonist activity at recombinant human S1PR5 expressed in CHO cell membranes assessed as [35S]GTP-gammaS binding measured after 1.5 hrs by TopCount scintillation counting method relative to S1P.
For experiment [4], the target named is T2, Sphingosine 1-phosphate receptor 4 (Homo sapiens) (UniProt O95977).
T2 sequence (whole entry): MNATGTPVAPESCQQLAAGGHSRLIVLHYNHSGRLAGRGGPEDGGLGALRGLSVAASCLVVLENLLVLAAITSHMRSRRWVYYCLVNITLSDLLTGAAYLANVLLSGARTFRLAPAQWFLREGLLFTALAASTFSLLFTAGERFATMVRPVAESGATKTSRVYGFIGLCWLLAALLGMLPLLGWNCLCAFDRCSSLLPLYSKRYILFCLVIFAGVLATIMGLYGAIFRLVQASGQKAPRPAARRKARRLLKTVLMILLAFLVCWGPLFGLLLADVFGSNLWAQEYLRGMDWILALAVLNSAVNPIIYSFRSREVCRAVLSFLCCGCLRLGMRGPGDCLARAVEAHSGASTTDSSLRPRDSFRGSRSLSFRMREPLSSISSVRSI
The experiment in a line: Activation of human S1PR4 expressed in CHO cells assessed as ERK1/2 phosphorylation at 100 nM treated under serum-free condition post 1 day serum starvation measured after 5 mins by Western blot analysis. It counts as cell-based. A general note: A western blot detects proteins with antibodies after separation by electrophoresis.

Experiment [5] addresses T2, Sphingosine 1-phosphate receptor 4 (Homo sapiens). The experiment in a line: Activation of human S1PR4 expressed in CHO cells assessed as suppression of forskolin-induced intracellular cAMP level at 1 to 10 uM measured after 15 mins by ELISA. Format: functional, cell-based. (cAMP levels reflect the balance of adenylyl cyclase and phosphodiesterase activity.)
For experiment [6], the target named is T3, Sphingosine 1-phosphate receptor 1 (Homo sapiens, UniProt P21453). The experiment in a line: Agonist activity at recombinant human S1PR1 expressed in CHO cell membranes assessed as [35S]GTP-gammaS binding measured after 1.5 hrs by TopCount scintillation counting method.
The target of experiment [7] is T4, Sphingosine 1-phosphate receptor 4 (Homo sapiens, UniProt O95977).
T4 sequence (O95977 whole entry): T2 sequence (whole entry)
Description: Activation of human S1PR4 expressed in CHO cells assessed as suppression of forskolin-induced intracellular cAMP level measured after 15 mins by ELISA. It counts as functional, cell-based.

The target in experiment [8] is T4, Sphingosine 1-phosphate receptor 4. Description: Agonist activity at recombinant human S1PR4 expressed in CHO cell membranes assessed as [35S]GTP-gammaS binding measured after 1.5 hrs by TopCount scintillation counting method.
Experiment [9] addresses Sphingosine 1-phosphate receptor 2 (Homo sapiens, UniProt O95136). The experiment in a line: Agonist activity at recombinant human S1PR2 expressed in CHO cell membranes assessed as [35S]GTP-gammaS binding measured after 1.5 hrs by TopCount scintillation counting method.
The target of experiment [10] is T2, Sphingosine 1-phosphate receptor 4 (Homo sapiens). Description: Activation of human S1PR4 expressed in CHO cells assessed as ERK1/2 phosphorylation at 10 uM treated under serum-free condition post 1 day serum starvation measured after 5 mins by Western blot analysis. It counts as cell-based.
Experiment [11] concerns the target T1, Sphingosine 1-phosphate receptor 5. The experiment in a line: Activation of human S1PR5 expressed in CHO cells assessed as suppression of forskolin-induced intracellular cAMP level at 1 to 10 uM measured after 15 mins by ELISA. Format: functional, cell-based.
The target of experiment [12] is T3, Sphingosine 1-phosphate receptor 1. Description: Activation of human S1PR1 expressed in CHO cells assessed as ERK1/2 phosphorylation at 1 to 10 uM treated under serum-free condition post 1 day serum starvation measured after 10 to 30 mins by Western blot analysis. Format: cell-based.
For experiment [13] the target is unchanged. The experiment in a line: Activation of human S1PR1 expressed in CHO cells assessed as suppression of forskolin-induced intracellular cAMP level at 1 to 10 uM measured after 15 mins by ELISA. It counts as functional, cell-based.

Active and inactive are the calls of the source. The calls are words filed in the database; no cut-off is given here.

T3 sequence (P21453 whole entry): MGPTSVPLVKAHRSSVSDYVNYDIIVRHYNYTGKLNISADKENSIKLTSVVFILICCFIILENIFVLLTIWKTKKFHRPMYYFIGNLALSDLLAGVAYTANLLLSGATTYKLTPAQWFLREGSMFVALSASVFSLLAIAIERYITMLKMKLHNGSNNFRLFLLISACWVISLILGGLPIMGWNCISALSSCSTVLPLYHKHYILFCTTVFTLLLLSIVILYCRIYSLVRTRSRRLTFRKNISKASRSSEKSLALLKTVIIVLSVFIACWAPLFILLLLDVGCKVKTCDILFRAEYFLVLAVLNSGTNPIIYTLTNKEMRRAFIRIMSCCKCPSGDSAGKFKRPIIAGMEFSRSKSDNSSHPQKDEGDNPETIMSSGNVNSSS
Sequence of Sphingosine 1-phosphate receptor 2 (O95136 whole entry): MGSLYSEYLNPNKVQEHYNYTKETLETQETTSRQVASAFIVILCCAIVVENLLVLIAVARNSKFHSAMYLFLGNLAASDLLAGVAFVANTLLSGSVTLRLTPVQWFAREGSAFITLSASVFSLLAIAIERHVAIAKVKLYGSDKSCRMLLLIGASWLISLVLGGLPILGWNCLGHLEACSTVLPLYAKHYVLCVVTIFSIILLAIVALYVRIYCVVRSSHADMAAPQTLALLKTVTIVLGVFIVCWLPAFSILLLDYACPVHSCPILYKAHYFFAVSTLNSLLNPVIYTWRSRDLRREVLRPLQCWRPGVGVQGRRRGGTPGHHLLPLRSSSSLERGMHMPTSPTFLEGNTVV
T1 sequence (Q9H228 whole entry): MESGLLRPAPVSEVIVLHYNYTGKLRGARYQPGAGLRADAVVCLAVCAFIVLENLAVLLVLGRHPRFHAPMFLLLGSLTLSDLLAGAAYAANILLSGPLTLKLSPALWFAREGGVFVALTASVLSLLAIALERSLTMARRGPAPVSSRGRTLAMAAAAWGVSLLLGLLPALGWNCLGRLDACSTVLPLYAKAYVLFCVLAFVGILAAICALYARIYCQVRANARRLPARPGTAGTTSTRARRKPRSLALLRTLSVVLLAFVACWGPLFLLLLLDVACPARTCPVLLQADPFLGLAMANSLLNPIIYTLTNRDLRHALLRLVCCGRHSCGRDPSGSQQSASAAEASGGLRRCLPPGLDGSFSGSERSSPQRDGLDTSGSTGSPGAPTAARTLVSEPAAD
Sequence of Sphingosine 1-phosphate receptor 3 (Q99500 whole entry): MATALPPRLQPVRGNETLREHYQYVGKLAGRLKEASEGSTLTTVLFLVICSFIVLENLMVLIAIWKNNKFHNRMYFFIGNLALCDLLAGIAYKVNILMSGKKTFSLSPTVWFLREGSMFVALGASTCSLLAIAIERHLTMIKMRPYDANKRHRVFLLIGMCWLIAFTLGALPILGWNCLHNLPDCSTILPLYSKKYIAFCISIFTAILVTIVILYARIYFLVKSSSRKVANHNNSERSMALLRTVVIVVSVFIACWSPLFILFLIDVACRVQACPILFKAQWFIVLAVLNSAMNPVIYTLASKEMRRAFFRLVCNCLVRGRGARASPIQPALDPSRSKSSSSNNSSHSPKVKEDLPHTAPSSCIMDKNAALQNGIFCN

Regarding `O=C(O)CCCNCc1cc2cccc(-c3ccc4ccccc4c3)c2s1`, the EC50 – broadly, the concentration giving half of the maximal effect – in experiment [1] is above 100000 nM; in experiment [2], 370 nM; in experiment [6] it was above 100000 nM; in [7], 154 nM; in experiment [8], 200 nM; in experiment [9] it was above 100000 nM. Also, in [3], the Efficacy is 24%. Further, the outcome in experiment [4], in experiment [5] and in experiment [10] was Active.

Turning to `O=C(O)CCNCc1cc2c(-c3ccc4ccccc4c3)cccc2s1`, the EC50 in [1] is above 100000 nM; in experiment [2], 31 nM; in experiment [6] it was above 100000 nM; in experiment [8], 433 nM; in experiment [9] it was above 100000 nM. The Efficacy in experiment [3] is 75%.

As for `O=C(O)CNCc1cc2c(-c3ccc4ccccc4c3)cccc2s1`, the EC50 was above 100000 nM in experiment [1]; 51 nM in [2]; above 100000 nM in [6]; 640 nM in experiment [8]; above 100000 nM in experiment [9]. The Efficacy in experiment [3] came out at 47%.

Turning to `O=C(O)CCCCNCc1cc2c(-c3ccc4ccccc4c3)cccc2s1`, the concentration giving a half-maximal response (EC50) in [1] was above 100000 nM; in experiment [2], 152 nM; in [6], above 100000 nM; in experiment [8], 1080 nM; in experiment [9], above 100000 nM. For the same compound, the Efficacy in [3] was 47%.

For `O=C(O)C1CN(Cc2cc3cc(-c4ccc5ccccc5c4)ccc3s2)C1`, the EC50 in [1] is above 100000 nM; in experiment [2], 22 nM; in experiment [6], above 100000 nM; in experiment [8], above 100000 nM; in [9], above 100000 nM. The Efficacy in experiment [3] came to 50%. Also, the result in [11], in [12] and in [13] was Active.

For `O=C(O)CCCNCc1cc2c(-c3ccc4ccccc4c3)cccc2s1`, the EC50 in [1] was above 100000 nM; in experiment [2], 60 nM; in [6] it was above 100000 nM; in experiment [8] it was 211 nM; in [9], above 100000 nM. Besides, the Efficacy in [3] is 69%.

As to `O=C(O)c1ccc(CNCc2cc3c(-c4ccc5ccccc5c4)cccc3s2)cc1`, the EC50 in experiment [1] was above 100000 nM; in experiment [2] it was 356 nM; in experiment [6], above 100000 nM; in experiment [8], above 100000 nM; in experiment [9], above 100000 nM. Moreover, the Efficacy in experiment [3] came to 53%.
